Experiments:
[1] = biological target: complex III (electron transport chain); format: biochemical
[2] = biological target: complex I (NADH-ubiquinone oxidoreductase); format: biochemical

Q: Which results are given for `Cc1ccc(Sc2cccc3[nH]c4nc(N)nc(N)c4c23)cc1` [AG311]?
A: Ki [1]: 32 µM; Ki [2]: 0.84 µM
